The assay deals with T1, human melanin concentrating hormone receptor (MCHR1) (Homo sapiens, UniProt Q99705, A5T/E4Q).
T1 construct: expressed in transfected cells; host or cells: HEK-293 (stably transfected), membranes
T1 sequence (Q99705 whole entry E4Q/A5T): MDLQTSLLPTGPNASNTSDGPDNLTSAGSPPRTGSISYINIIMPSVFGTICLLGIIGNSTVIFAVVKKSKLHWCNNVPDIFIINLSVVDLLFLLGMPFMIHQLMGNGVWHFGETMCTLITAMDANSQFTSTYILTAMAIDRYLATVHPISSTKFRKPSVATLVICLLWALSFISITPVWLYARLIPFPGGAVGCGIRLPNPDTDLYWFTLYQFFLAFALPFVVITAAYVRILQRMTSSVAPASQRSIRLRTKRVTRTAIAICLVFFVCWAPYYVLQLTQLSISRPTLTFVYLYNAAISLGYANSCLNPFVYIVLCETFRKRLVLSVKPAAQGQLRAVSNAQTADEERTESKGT
Briefly: Radioligand binding assay for assessment of MCHR1 activity. The conditions noted are these: membranes from HEK-293 cells expressing a mutated (E4Q, A5T) hMCHR1 receptor; competition with 0.06 - 0.1 nM [Phe13, [125I]Tyr19]-MCH; 90 min. As for the experimental part: Radioligand Binding Assay for Assessment of MCHR1 Activity
An in vitro binding assay was used to determine the compound Ki value or ability to antagonize binding of a peptide agonist to the human melanin concentrating hormone receptor (MCHR1). […] Binding experiments were carried out with 0.5-1.0 µg of membrane protein incubated in a total of 0.2 mL in 25 mM HEPES (pH 7.4) with 10 mM MgCl2, 2 mM EGTA, and 0.1% BSA (Binding Buffer) for 90 min. For competition binding assays, reactions were carried out in the presence of with 0.06 - 0.1 nM [Phe^13, [^125I]Tyr^19]-MCH and increasing concentrations of unlabeled test molecules. […] Filters were dried, 0.05 mL MicroScint 20 was added to each well and radioactivity was subsequently quantified by scintillation counting on a TOPCOUNT® microplate scintillation counter (Packard). Inhibitory constants were determined by nonlinear least squares analysis using a four parameter logistic equation.
Compound `Cc1cc(N2CCC(Oc3ccc(C4CC4)cc3)C2=O)ccc1OC[C@@H](O)CS(C)(=O)=O` (some centres unmarked) [Example 100] returned an inhibitory constant (Ki) of 42 nM.

For the compound `Cc1cc(N2CCC(Oc3ccc(C4CC4)cc3)C2=O)ccc1OCC(C)(C)O` (centres unmarked) [Example 82], the Ki was found to be 11 nM.

As for `Cc1cc(N2CCC(Oc3ccc(-c4ccccc4)nc3)C2=O)ccc1OCC(C)(C)O` (centres unmarked) [Example 88], affinity was put at a Ki of 45 nM. Next, `COc1ccc(OC2CCN(c3ccc(OCC(C)(C)O)c(OC)c3)C2=O)cc1` (centres unmarked) [Example 5]: 662 nM. `CCS(=O)(=O)C[C@@H](O)COc1ccc(N2CCC(Oc3ccc(OC(F)(F)F)cc3)C2=O)cc1C` (some centres unmarked) [Example 94] returned a Ki of 714 nM.

`COc1cc(N2CCC(Oc3cccc(C(F)(F)F)c3)C2=O)ccc1OCC(C)(C)O` (centres unmarked) [Example 7] displayed a Ki of 6000 nM. Next, `COc1cc(N2CCC(Oc3cccc(Cl)c3)C2=O)ccc1OCC(C)(C)O` (centres unmarked) [Example 2]: 10000 nM. Next, `CCS(=O)(=O)C[C@@H](O)COc1ccc(N2CCC(Oc3ccc(C4CC4)cc3)C2=O)cc1C` (some centres unmarked) [Example 93]: 57 nM; `COc1cc(N2CCC(Oc3ccc(-c4ccccc4)c(F)c3)C2=O)ccc1OCC(C)(C)O` (centres unmarked) [Example 30]: 12 nM. Next, `COc1cc(N2CCC(Oc3ccc(C4CC4)cc3)C2=O)ccc1OC[C@@H](O)CS(C)(=O)=O` (some centres unmarked) [Example 64]: 32 nM; `CCS(=O)(=O)C[C@@H](O)COc1ccc(N2CCC(Oc3ccc(-c4cccc(F)c4)cc3)C2=O)cc1OC` (some centres unmarked) [Example 55]: 38 nM. For the compound `Cc1cc(N2CCC(Oc3ccc(-c4ccccc4)cc3)C2=O)ccc1OCC(C)(C)O` (centres unmarked) [Example 80], the affinity corresponds to a Ki of 4 nM. `COc1cc(N2CC[C@H](Oc3ccc(-c4ccccc4)cc3)C2=O)ccc1OC[C@H](O)C1CC1` [Example 45] showed an inhibition constant Ki of 1060 nM. Consider `COc1cc(N2CCC(Oc3ccc(C4CC4)cc3)C2=O)ccc1OCCS(=O)(=O)CC(C)(C)O` (centres unmarked) [Example 74], for which the Ki is 64 nM.

As to `CCS(=O)(=O)C[C@@H](O)COc1ccc(N2CCC(Oc3ccc(OC(F)(F)F)cc3)C2=O)cc1OC` (some centres unmarked) [Example 51], the Ki was determined as 78 nM. Compound `COc1cc(N2CCC(Oc3ccc(OC(F)(F)F)cc3)C2=O)ccc1OCC(C)(C)O` (centres unmarked) [Example 14] had a Ki of 134 nM. Next, `Cc1cc(N2CCC(Oc3ccc(N4CCOCC4)cc3)C2=O)ccc1OCC(C)(C)O` (centres unmarked) [Example 33]: 903 nM; `Cc1cc(N2CCC(Oc3ccc(-c4ccc(F)cc4)cc3)C2=O)ccc1OC[C@@H](O)CS(C)(=O)=O` (some centres unmarked) [Example 99]: 19 nM; `Cc1cc(N2CC[C@@H](Oc3ccc(OC(F)(F)F)cc3)C2=O)ccc1OCC(C)(C)O` [Example 79]: 11 nM. For `Cc1cc(N2CCC(Oc3ccc(C(F)(F)F)cc3)C2=O)ccc1OC[C@H](O)CS(C)(=O)=O` (some centres unmarked) [Example 98] the value was 1430 nM; for `Cc1cc(N2CCC(Oc3ccc(-c4cccc(F)c4)cc3)C2=O)ccc1OCCS(C)(=O)=O` (centres unmarked) [Example 108], 5 nM. Next, `COc1cc(N2CCC(Oc3ccc(-c4ccccc4)cc3)C2=O)ccc1OCCS(=O)(=O)CC(C)(C)O` (centres unmarked) [Example 75]: 13 nM; `COc1cc(N2CCC(Oc3ccc(OC(F)(F)F)cc3)C2=O)ccc1OC[C@H](O)CS(C)(=O)=O` (some centres unmarked) [Example 61]: 65 nM; `COc1cc(N2CCC(Oc3ccc(OC(F)(F)F)cc3Cl)C2=O)ccc1OCC(C)(C)O` (centres unmarked) [Example 17]: 402 nM. In turn, `COc1cc(N2CC[C@H](Oc3ccc(C(F)(F)F)cc3)C2=O)ccc1OCC(C)(C)O` (single isomer, unassigned) [Example 10] displayed a Ki of 6000 nM. For `CCS(=O)(=O)C[C@@H](O)COc1ccc(N2CCC(Oc3ccc(-c4ccc(F)cc4)cc3)C2=O)cc1C` (some centres unmarked) [Example 92] the value was 22 nM. For `Cc1cc(N2CCC(Oc3ccc(C(F)(F)F)cn3)C2=O)ccc1OCC(C)(C)O` (centres unmarked) [Example 86] the value was 5000 nM; for `Cc1cc(N2CC=C(Oc3ccc(OC(F)(F)F)cc3)C2=O)ccc1OCC(C)(C)O` [Example 117], 25 nM; for `COc1cc(N2CC=C(Oc3ccc(C4CC4)cc3)C2=O)ccc1OC[C@H](O)C1CC1` [Example 121], 2 nM. Next, `COc1cc(N2CCC(C)(Oc3ccc(OC(F)(F)F)cc3)C2=O)ccc1OCC(C)(C)O` (centres unmarked) [Example 13, 1-(4-(2-Hydroxy-2-methylpropoxy)-3-methoxyphenyl)-3-methyl-3-(4-(trifluoromethoxy)phenoxy)pyrrolidin-2-one]: 473 nM; `Cc1cc(N2CC[C@@H](Oc3ccc(C4CC4)cc3)C2=O)ccc1OCC(C)(C)O` [Example 84]: 5 nM; `COc1cc(N2CCC(Oc3ccc(-n4ccnc4)cc3)C2=O)ccc1OCC(C)(C)O` (centres unmarked) [Example 39]: 480 nM. Compound `COc1cc(N2CC[C@H](Oc3ccc(-c4ccccc4)cc3)C2=O)ccc1OCC(C)(C)O` [Example 20] displayed a Ki of 493 nM.

For the compound `COc1cc(N2CC[C@@H](Oc3ccc(-c4ccccc4)cc3)C2=O)ccc1OC[C@H](O)C1CC1` [Example 44], the Ki was 4 nM. In the case of `COc1cc(N2CC[C@@H](Oc3ccc(OC(F)(F)F)cc3)C2=O)ccc1OCC(C)(C)O` [Example 15], the affinity, expressed as Ki, was 11 nM. Next, `COc1cc(N2CC[C@H](Oc3ccc(OC(F)(F)F)cc3)C2=O)ccc1OCC(C)(C)O` [Example 16]: 2340 nM; `COc1cc(N2CCC(Oc3ccc(C4CC4)cc3)C2=O)ccc1OCC(C)(C)O` (centres unmarked) [Example 22, 3-(4-Cyclopropylphenoxy)-1-(4-(2-hydroxy-2-methylpropoxy)-3-methoxyphenyl)pyrrolidin-2-one]: 23 nM. For `COc1cc(N2CCC(Oc3ccc(-c4ccccc4C(F)(F)F)cc3)C2=O)ccc1OCC(C)(C)O` (centres unmarked) [Example 28] the value was 956 nM; for `Cc1cc(N2CCC(Oc3ccc(Br)nc3)C2=O)ccc1OCC(C)(C)O` (centres unmarked) [Example 87], 7000 nM. Regarding `Cc1cc(N2CC[C@H](Oc3ccc(OC(F)(F)F)cc3)C2=O)ccc1OCC(C)(C)O` [Example 78], the Ki came to 6000 nM. In turn, `COc1cc(N2CCC(Oc3ccc(-c4ccncc4Cl)cc3)C2=O)ccc1OCC(C)(C)O` (centres unmarked) [Example 32] gave a Ki of 634 nM. For `COc1cc(N2CCC(Oc3ccc(Br)c(F)c3)C2=O)ccc1OCC(C)(C)O` (centres unmarked) [Example 42] the value was 821 nM; for `COc1cc(N2CCC(Oc3ccc(-c4ccccc4)cc3)C2=O)ccc1OCC1(O)CC(F)(F)C1` (centres unmarked) [Example 47], 7 nM.

With `COc1cc(N2CCC(Oc3ccc(C4CC4)cc3)C2=O)ccc1OC[C@H](O)C1CC1` (some centres unmarked) [Example 46], affinity was put at a Ki of 12 nM. The compound `COc1cc(N2CCC(Oc3cccc(OC(F)(F)F)c3)C2=O)ccc1OCC(C)(C)O` (centres unmarked) [Example 11] returned a Ki of 5000 nM. Next, `COc1cc(N2CCC(Oc3ccc(-c4ccc(F)cc4)cc3)C2=O)ccc1OC[C@H](O)CS(C)(=O)=O` (some centres unmarked) [Example 59]: 18 nM. Next, `Cc1cc(N2CCC(Oc3ccc(-c4ccccc4)cc3)C2=O)ccc1OCCS(C)(=O)=O` (centres unmarked) [Example 104]: 1 nM; `COc1cc(N2CCC(Oc3ccc(-c4ccccc4)nc3)C2=O)ccc1OCC(C)(C)O` (centres unmarked) [Example 35]: 81 nM; `Cc1cc(N2CCC(Oc3ccc(C4CC4)cc3)C2=O)ccc1OC[C@H](O)CS(C)(=O)=O` (some centres unmarked) [Example 97]: 79 nM. Regarding `CCS(=O)(=O)C[C@@H](O)COc1ccc(N2CCC(Oc3ccc(-c4ccc(F)cc4)cc3)C2=O)cc1OC` (some centres unmarked) [Example 54], the affinity, expressed as Ki, was 21 nM. `COc1cc(N2CCC(Oc3ccc(C4CC4)cc3)C2=O)ccc1OC[C@H](O)CS(C)(=O)=O` (some centres unmarked) [Example 60]: the affinity, expressed as Ki, was 17 nM. Next, `Cc1cc(N2CCC(Oc3ccc(C(F)(F)F)cc3)C2=O)ccc1OCCS(C)(=O)=O` (centres unmarked) [Example 112]: 31 nM; `CCS(=O)(=O)C[C@@H](O)COc1ccc(N2CCC(Oc3ccc(C4CC4)cc3)C2=O)cc1OC` (some centres unmarked) [Example 52]: 16 nM. Compound `COc1cc(N2CCC(Oc3ccc(C(F)(F)F)cc3)C2=O)ccc1OCC(C)(C)O` (centres unmarked) [Example 8] had a Ki of 34 nM. For `COc1cc(N2CCC(Oc3ccc(-c4ccccc4F)c(F)c3)C2=O)ccc1OCC(C)(C)O` (centres unmarked) [Example 31] the value was 34 nM; for `COc1cc(N2CC[C@@H](Oc3ccc(-c4ccccc4)cc3)C2=O)ccc1OCC(C)(C)O` [Example 21], 2 nM; for `COc1cc(N2CCC(Oc3ccc(-c4ccccc4)cc3)C2=O)ccc1OC[C@H](O)CS(C)(=O)=O` (stereo partly drawn) [Example 58, 3-(Biphenyl-4-yloxy)-1-(4-((S)-2-hydroxy-3-(methylsulfonyl)propoxy)-3-methoxyphenyl)pyrrolidin-2-one], 9 nM. For `COc1cccc(OC2CCN(c3ccc(OCC(C)(C)O)c(OC)c3)C2=O)c1` (centres unmarked) [Example 4] the value was 218 nM; for `Cc1cc(N2CCC(Oc3ccc(-c4ccccc4)cc3)C2=O)ccc1OCC1(O)CC(F)(F)C1` (centres unmarked) [Example 90], 10 nM; for `COc1cc(N2CCC(Oc3ccc(OC4CC4)cc3)C2=O)ccc1OCC(C)(C)O` (centres unmarked) [Example 23], 44 nM. For `Cc1cc(N2CCC(Oc3ccc(OC(F)(F)F)cc3)C2=O)ccc1OCCS(C)(=O)=O` (centres unmarked) [Example 103] the value was 40 nM; for `COc1cc(N2CCC(Oc3ccc(-c4ccccc4F)cc3)C2=O)ccc1OCC(C)(C)O` (centres unmarked) [Example 24, 3-(2'-Fluorobiphenyl-4-yloxy)-1-(4-(2-hydroxy-2-methylpropoxy)-3-methoxyphenyl)pyrrolidin-2-one], 9 nM.
